Assay results published in patent US11173151B2, “Substituted triazole derivatives and uses thereof” (BAYER AKTIENGESELLSCHAFT, priority 2017, dated 2021).

Columns and labels:
human V1a receptor = biological target: T1, human V1a receptor (Homo sapiens, UniProt P37288); test: Cellular in vitro assay for determining vasopressin receptor activity, V1a receptor cell line (CHO, aequorin luminescence); format: cell-based; conditions: for IC50: CHO cell line transfected with human V1a receptor, [Arg]-vasopressin at EC50 concentration, read-out: IC50 hV1a; for ratio IC50 hV2/hV1a: selectivity ratio IC50 hV2 / IC50 hV1a
T1 construct: expressed in transfected cells; host or cells: CHO K1 (ATCC), also stably transfected with a modified aequorin
Outline: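 Luminescence from reconstituted aequorin, reporting intracellular calcium release, was measured immediately after adding [Arg]-vasopressin at EC50 concentration to CHO K1 cells pretreated 10 minutes with graded compound concentrations. Inhibition gave IC50 values.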

human V2 receptor = biological target: T2, human V2 receptor (Homo sapiens, UniProt P30518); test: Cellular in vitro assay for determining vasopressin receptor activity, V2 receptor cell line (CHO, CRE-luciferase); format: cell-based; conditions: CHO cell line transfected with human V2 receptor; [Arg8]-vasopressin at EC50 concentration; read-out: IC50 hV2
T2 construct: expressed in transfected cells; host or cells: CHO K1 (ATCC) expressing firefly luciferase under a CRE-responsive promoter
T2 sequence (P30518 whole entry): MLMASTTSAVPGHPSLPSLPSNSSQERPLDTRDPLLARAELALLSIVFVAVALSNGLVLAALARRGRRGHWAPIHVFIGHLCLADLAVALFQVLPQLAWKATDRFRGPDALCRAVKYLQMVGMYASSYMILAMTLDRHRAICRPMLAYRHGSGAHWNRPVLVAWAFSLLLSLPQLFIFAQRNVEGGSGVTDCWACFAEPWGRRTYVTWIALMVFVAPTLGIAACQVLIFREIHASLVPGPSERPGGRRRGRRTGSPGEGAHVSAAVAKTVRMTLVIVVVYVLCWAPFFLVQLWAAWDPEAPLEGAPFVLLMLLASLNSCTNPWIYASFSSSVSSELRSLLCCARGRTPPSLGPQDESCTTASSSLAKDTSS

T1 sequence (P37288 whole entry): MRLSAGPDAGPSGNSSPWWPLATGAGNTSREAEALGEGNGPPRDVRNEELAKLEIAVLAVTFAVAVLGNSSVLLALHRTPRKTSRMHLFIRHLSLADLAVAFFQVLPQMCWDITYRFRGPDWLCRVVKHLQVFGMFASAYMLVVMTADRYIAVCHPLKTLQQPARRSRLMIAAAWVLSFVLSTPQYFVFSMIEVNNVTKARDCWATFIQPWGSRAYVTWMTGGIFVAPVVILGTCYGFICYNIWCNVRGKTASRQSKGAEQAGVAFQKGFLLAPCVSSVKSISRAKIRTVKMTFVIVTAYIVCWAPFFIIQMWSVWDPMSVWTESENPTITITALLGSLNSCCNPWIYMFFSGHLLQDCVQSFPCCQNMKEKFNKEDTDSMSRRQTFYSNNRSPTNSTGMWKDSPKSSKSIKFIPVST

Row | SMILES | IC50 (human V1a receptor) [nM] | ratio IC50 hV2/hV1a (human V1a receptor) | IC50 (human V2 receptor) [nM]
1 | COC[C@@H]1CCCN1C(=O)c1cccc(C(F)(F)F)c1-n1cnc(Cn2nc(-c3ccc(Cl)cc3)n(C[C@H](O)C(F)(F)F)c2=O)n1 [Example 423, 5-(4-Chlorophenyl)-2-({1-[2-{[(2S)-2-(methoxymethyl)pyrrolidin-1-yl]carbonyl}-6-(trifluoromethyl)phenyl]-1H-1,2,4-triazol-3-yl}methyl)-4-[(2S)-3,3,3-trifluoro-2-hydroxypropyl]-2,4-dihydro-3H-1,2,4-triazol-3-one] | 40 | 472.5 | 18900
2 | CC(C)(N)CNC(=O)c1cc(F)ccc1-n1cnc(Cn2nc(-c3ccc(Cl)cc3)n(C[C@H](O)C(F)(F)F)c2=O)n1 [Example 424, N-(2-Amino-2-methylpropyl)-2-[3-({3-(4-chlorophenyl)-5-oxo-4-[(2S)-3,3,3-trifluoro-2-hydroxypropyl]-4,5-dihydro-1H-1,2,4-triazol-1-yl}methyl)-1H-1,2,4-triazol-1-yl]-5-fluorobenzamide] | 11.5 | 230.4 | 2650
3 | CNC(=O)c1cc(F)ccc1-n1cnc(Cn2nc(-c3ccc(Cl)cc3)n(C[C@H](O)C(F)(F)F)c2=O)n1 [Example 425, 2-[3-({3-(4-Chlorophenyl)-5-oxo-4-[(2S)-3,3,3-trifluoro-2-hydroxypropyl]-4,5-dihydro-1H-1,2,4-triazol-1-yl}methyl)-1H-1,2,4-triazol-1-yl]-5-fluoro-N-methylbenzamide] | 9.85 | 10.2 | 100
4 | O=C(NCC(F)(F)F)c1cc(F)ccc1-n1cnc(Cn2nc(-c3ccc(Cl)cc3)n(C[C@H](O)C(F)(F)F)c2=O)n1 [Example 426, 2-[3-({3-(4-Chlorophenyl)-5-oxo-4-[(2S)-3,3,3-trifluoro-2-hydroxypropyl]-4,5-dihydro-1H-1,2,4-triazol-1-yl}methyl)-1H-1,2,4-triazol-1-yl]-5-fluoro-N-(2,2,2-trifluoroethyl)benzamide] | 19 | 6.6 | 125
5 | O=C(NCC(F)(F)F)c1cc(Cl)ccc1-n1cnc(Cn2nc(-c3ccc(Cl)cc3)n(C[C@H](O)C(F)(F)F)c2=O)n1 [Example 427, 5-Chloro-2-[3-({3-(4-chlorophenyl)-5-oxo-4-[(2S)-3,3,3-trifluoro-2-hydroxypropyl]-4,5-dihydro-1H-1,2,4-triazol-1-yl}methyl)-1H-1,2,4-triazol-1-yl]-N-(2,2,2-trifluoroethyl)benzamide] | 21 | 3.5 | 72.7
6 | O=C(NCC(F)(F)F)c1ncccc1-n1cnc(Cn2nc(-c3ccc(Cl)cc3)n(C[C@H](O)C(F)(F)F)c2=O)n1 [Example 428, 3-[3-({3-(4-Chlorophenyl)-5-oxo-4-[(2S)-3,3,3-trifluoro-2-hydroxypropyl]-4,5-dihydro-1H-1,2,4-triazol-1-yl}methyl)-1H-1,2,4-triazol-1-yl]-N-(2,2,2-trifluoroethyl)pyridine-2-carboxamide] | 41 | 31.5 | 1290
7 | O=C(NC1CC1)c1ncccc1-n1cnc(Cn2nc(-c3ccc(Cl)cc3)n(C[C@H](O)C(F)(F)F)c2=O)n1 [Example 431, 3-[3-({3-(4-Chlorophenyl)-5-oxo-4-[(2S)-3,3,3-trifluoro-2-hydroxypropyl]-4,5-dihydro-1H-1,2,4-triazol-1-yl}methyl)-1H-1,2,4-triazol-1-yl]-N-cyclopropylpyridine-2-carboxamide] | 16.5 | 66.7 | 1100
8 | O=C(NCC1CC1)c1ncccc1-n1cnc(Cn2nc(-c3ccc(Cl)cc3)n(C[C@H](O)C(F)(F)F)c2=O)n1 [Example 432, 3-[3-({3-(4-Chlorophenyl)-5-oxo-4-[(2S)-3,3,3-trifluoro-2-hydroxypropyl]-4,5-dihydro-1H-1,2,4-triazol-1-yl}methyl)-1H-1,2,4-triazol-1-yl]-N-(cyclopropylmethyl)pyridine-2-carboxamide] | 44.5 | 21.2 | 945
9 | NC(=O)[C@H]1CC(F)(F)CN1C(=O)c1ncccc1-n1cnc(Cn2nc(-c3ccc(Cl)cc3)n(C[C@H](O)C(F)(F)F)c2=O)n1 [Example 433, 1-({3-[3-({3-(4-Chlorophenyl)-5-oxo-4-[(2S)-3,3,3-trifluoro-2-hydroxypropyl]-4,5-dihydro-1H-1,2,4-triazol-1-yl}methyl)-1H-1,2,4-triazol-1-yl]pyridin-2-yl}carbonyl)-4,4-difluoro-D-prolinamide] | 71 | 31.0 | 2200
10 | NC(=O)[C@@H]1CC(F)(F)CN1C(=O)c1ncccc1-n1cnc(Cn2nc(-c3ccc(Cl)cc3)n(C[C@H](O)C(F)(F)F)c2=O)n1 [Example 434, 1-({3-[3-({3-(4-Chlorophenyl)-5-oxo-4-[(2S)-3,3,3-trifluoro-2-hydroxypropyl]-4,5-dihydro-1H-1,2,4-triazol-1-yl}methyl)-1H-1,2,4-triazol-1-yl]pyridin-2-yl}carbonyl)-4,4-difluoro-L-prolinamide] | 82 | 32.9 | 2700
11 | O=C(c1ncccc1-n1cnc(Cn2nc(-c3ccc(Cl)cc3)n(C[C@H](O)C(F)(F)F)c2=O)n1)N1CCC(F)(F)C1 [Example 437, 5-(4-Chlorophenyl)-2-[(1-{2-[(3,3-difluoropyrrolidin-1-yl)carbonyl]pyridin-3-yl}-1H-1,2,4-triazol-3-yl)methyl]-4-[(2S)-3,3,3-trifluoro-2-hydroxypropyl]-2,4-dihydro-3H-1,2,4-triazol-3-one] | 40.5 | 91.4 | 3700
12 | CC1(C)CN(C(=O)c2ncccc2-n2cnc(Cn3nc(-c4ccc(Cl)cc4)n(C[C@H](O)C(F)(F)F)c3=O)n2)CCO1 [Example 438, 5-(4-Chlorophenyl)-2-[(1-{2-[(2,2-dimethylmorpholin-4-yl)carbonyl]pyridin-3-yl}-1H-1,2,4-triazol-3-yl)methyl]-4-[(2S)-3,3,3-trifluoro-2-hydroxypropyl]-2,4-dihydro-3H-1,2,4-triazol-3-one] | 86 | 103.5 | 8900
13 | O=C(NC1CC(F)(F)C1)c1ncccc1-n1cnc(Cn2nc(-c3ccc(Cl)cc3)n(C[C@H](O)C(F)(F)F)c2=O)n1 [Example 439, 3-[3-({3-(4-Chlorophenyl)-5-oxo-4-[(2S)-3,3,3-trifluoro-2-hydroxypropyl]-4,5-dihydro-1H-1,2,4-triazol-1-yl}methy)-1H-1,2,4-triazol-1-yl]-N-(3,3-difluorocyclobutyl)pyridine-2-carboxamide] | 53.5 | 24.0 | 1280
14 | O=C1CN(C(=O)c2ncccc2-n2cnc(Cn3nc(-c4ccc(Cl)cc4)n(C[C@H](O)C(F)(F)F)c3=O)n2)CCN1 [Example 443, 4-({3-[3-({3-(4-Chlorophenyl)-5-oxo-4-[(2S)-3,3,3-trifluoro-2-hydroxypropyl]-4,5-dihydro-1H-1,2,4-triazol-1-yl}methyl)-1H-1,2,4-triazol-1-yl]pyridin-2-yl}carbonyl)piperazin-2-one] | 220 | 102.3 | 22500
15 | O=C(c1ncccc1-n1cnc(Cn2nc(-c3ccc(Cl)cc3)n(C[C@H](O)C(F)(F)F)c2=O)n1)N1CCCCC1 [Example 445, 5-(4-Chlorophenyl)-2-({1-[2-(piperidin-1-ylcarbonyl)pyridin-3-yl]-1H-1,2,4-triazol-3-yl}methyl)-4-[(2S)-3,3,3-trifluoro-2-hydroxypropyl]-2,4-dihydro-3H-1,2,4-triazol-3-one] | 20 | 182.5 | 3650
16 | O=C(c1ncccc1-n1cnc(Cn2nc(-c3ccc(Cl)cc3)n(C[C@H](O)C(F)(F)F)c2=O)n1)N1CCOCC1 [Example 446, 5-(4-Chlorophenyl)-2-({1-[2-(morpholin-4-ylcarbonyl)pyridin-3-yl]-1H-1,2,4-triazol-3-yl}methyl)-4-[(2S)-3,3,3-trifluoro-2-hydroxypropyl]-2,4-dihydro-3H-1,2,4-triazol-3-one] | 47 | 457.4 | 21500
17 | O=C(NC1(C(F)(F)F)CC1)c1ncccc1-n1cnc(Cn2nc(-c3ccc(Cl)cc3)n(C[C@H](O)C(F)(F)F)c2=O)n1 [Example 447, 3-[3-({3-(4-Chlorophenyl)-5-oxo-4-[(2S)-3,3,3-trifluoro-2-hydroxypropyl]-4,5-dihydro-1H-1,2,4-triazol-1-yl}methyl)-1H-1,2,4-triazol-1-yl]-N-[1-(trifluoromethyl)cyclopropyl]pyridine-2-carboxamide] | 29.5 | 27.6 | 815
18 | O=C(c1ncccc1-n1cnc(Cn2nc(-c3ccc(Cl)cc3)n(C[C@H](O)C(F)(F)F)c2=O)n1)N1CCC[C@H]1C(F)(F)F [Example 450, 5-(4-Chlorophenyl)-4-[(2S)-3,3,3-trifluoro-2-hydroxypropyl]-2-{[1-(2-{[(2S)-2-(trifluoromethyl)pyrrolidin-1-yl]carbonyl}pyridin-3-yl)-1H-1,2,4-triazol-3-yl]methyl}-2,4-dihydro-3H-1,2,4-triazol-3-one] | 39.5 | 31.6 | 1250
19 | O=C(c1ncccc1-n1cnc(Cn2nc(-c3ccc(Cl)cc3)n(C[C@H](O)C(F)(F)F)c2=O)n1)N1CCC[C@@H]1C(F)(F)F [Example 451, 5-(4-Chlorophenyl)-4-[(2S)-3,3,3-trifluoro-2-hydroxypropyl]-2-{[1-(2-{[(2R)-2-(trifluoromethyl)pyrrolidin-1-yl]carbonyl}pyridin-3-yl)-1H-1,2,4-triazol-3-yl]methyl}-2,4-dihydro-3H-1,2,4-triazol-3-one] | 110 | 9.3 | 1020
